# From patent US20250186442A1, “Obicetrapib and Ezetimibe Combination Treatment and Fixed Dose Pharmaceutical Compositions” (NewAmsterdam Pharma B.V., priority 2022, published 2025)
# Columns and labels:
# [1] = ROSE2 phase 2b clinical trial - safety and tolerability (adverse events); type: in vivo, human; details: All Randomized Participants; obicetrapib 10 mg (N = 39), obicetrapib 10 mg + ezetimibe 10 mg (N = 40)
# Description: (§1) The exploratory objectives of this study include the following: • To evaluate the effect of obicetrapib 10 mg+ezetimibe 10 mg combination therapy and obicetrapib 10 mg monotherapy, when used as an adjunct to high-intensity statin therapy, on non-high-density lipoprotein cholesterol (non-HDL-C), very low-density lipoprotein cholesterol (VLDL-C), HDL-C, TG, ApoE, Lp(a), and HDL-ApoE at Day 84; • To evaluate the effect of obicetrapib 10 mg+ezetimibe 10 mg combination therapy and obicetrapib 10 mg monotherapy, when used as an adjunct to high-intensity statin therapy, on the proportion of participants achieving predefined LDL-C targets at Day 84; • To assess the mean trough plasma levels of obicetrapib 10 mg+ezetimibe 10 mg combination therapy and obicetrapib 10 mg monotherapy at steady state on Days 28, 84, and 112; and • To evaluate the safety and tolerability profiles of obicetrapib 10 mg+ezetimibe 10 mg combination therapy and obicetrapib 10 mg monotherapy, when used as an adjunct to high-intensity statin therapy, assessed by clinical laboratory values and incidence of AEs.
# The safety and tolerability profile of obicetrapib 10 mg, both in combination with ezetimibe 10 mg and as monotherapy, will be assessed by clinical laboratory assessments (chemistry and hematology), vital signs, physical examinations, and the incidence of AEs.
# An AE can therefore be any unfavorable and/or unintended sign (including an abnormal laboratory finding), symptom, or disease temporally associated with the use of an investigational medicinal product, whether or not related to the investigational medicinal product. All AEs, including observed or volunteered problems, complaints, or symptoms, are to be recorded on the appropriate eCRF.
# AEs, which include clinical laboratory assessment variables, will be monitored and documented from the time of first dose of study treatment until completion of Visit 5. Participants should be instructed to report any AE that they experience to the Investigator, whether or not they think the event is due to study drug. Beginning at the date of the first dose of study treatment, Investigators should make an assessment for AEs at each visit and record the event on the appropriate AE eCRF.
# The Investigator will assess the severity (intensity) of each AE as mild, moderate, or severe, and will also categorize each AE as to its potential relationship to study drug using the categories of yes or no.
# • Mild—An event that is easily tolerated and generally not interfering with normal daily activities. • Moderate—An event that is sufficiently discomforting to interfere with normal daily activities. • Severe—An event that is incapacitating with inability to work or perform normal daily activities.
# An AE or adverse reaction is considered serious if, in the view of either the Investigator or Sponsor, it results in any of the following outcomes: • Death; • A life-threatening AE;
# The Safety Population will include all participants who receive at least 1 dose of any study drug. Treatment classification will be based on the actual treatment received. The Safety Population will be the primary population used for the safety analyses.
# [2] = tested on: Lp(a); assay: ROSE2 phase 2b clinical trial - Lp(a); type: in vivo, human; details: mITT Population; obicetrapib 10 mg, ezetimibe 10 mg
# Description: as §1
# This study will be a placebo-controlled, double-blind, randomized, Phase 2 study to evaluate the efficacy, safety, and tolerability of obicetrapib 10 mg, both in combination with ezetimibe 10 mg and as monotherapy, as an adjunct to high-intensity statin therapy. This study will take place at approximately 20 sites in the United States.
# Up to 2 weeks after the Screening Visit, participants will return to the site on Day 1 (Visit 2) and confirm study eligibility before being randomized and beginning treatment. Approximately 114 eligible participants (38 participants per treatment group) will be randomized in a 1:1:1 ratio to 1 of the following treatment groups: • Combination therapy: Obicetrapib 10 mg+ezetimibe 10 mg (administered as one 10 mg obicetrapib tablet and one 10 mg ezetimibe capsule); • Obicetrapib monotherapy: Obicetrapib 10 mg (administered as one 10 mg obicetrapib tablet and 1 placebo capsule); or • Placebo (administered as 1 placebo tablet and 1 placebo capsule).
# The exploratory efficacy endpoints include the following: • Percent change from Day 1 to Day 84 in non-HDL-C, VLDL-C, HDL-C, TG, ApoE, Lp(a), and HDL-ApoE for the obicetrapib 10 mg+ezetimibe 10 mg combination treatment group compared with the placebo group and for the obicetrapib 10 mg monotherapy treatment group compared with the placebo group; and • Proportion of participants at Day 84 that achieve LDL-C<2.6 mmol/L (<100 mg/dL), LDL-C<1.8 mmol/L (<70 mg/dL), and LDL-C<1.3 mmol/L (<50 mg/dL) for the obicetrapib 10 mg+ezetimibe 10 mg combination treatment group compared with the placebo group and for the obicetrapib 10 mg monotherapy treatment group compared with the placebo group.
# Blood samples for the lipid profile must be obtained under fasting conditions (ie, after the participant has fasted for approximately 10 hours). For the purposes of this study, fasting will be defined as nothing by mouth except water and any essential medications. If a participant is not fasting, the Investigator should reschedule the visit as soon as possible. LDL-C level will be calculated using the Friedewald equation unless TG≥400 mg/dL or LDL-C≤50 mg/dL; in both cases, LDL-C level will be measured directly by preparative ultracentrifugation, also referred to as beta quantification. Additionally, LDL-C will be measured by preparative ultracentrifugation, also referred to as beta quantification, at baseline (Visit 2) and at the end of the 12-week Treatment Period (Visit 4) for all participants.
# The Modified ITT (mITT) Population will include all participants in the ITT Population who receive at least 1 dose of any study drug and have a baseline value for the LDL-C assessment. […]
smiles,measurement,setting,value
"CCOC(=O)N1c2ccc(C(F)(F)F)cc2[C@@H](N(Cc2cc(C(F)(F)F)cc(C(F)(F)F)c2)c2ncc(OCCCC(=O)O)cn2)C[C@H]1CC [Obicetrapib, {4-[(2-{[3,5-bis(trifluoromethyl)benzyl][(2R,4S)-1-(ethoxycarbonyl)-2-ethyl-6-(trifluoromethyl)-1,2,3,4-tetrahydroquinolin-4-yl]amino}pyrimidin-5-yl)oxy]butanoic acid}]","Primary reason for early study discontinuation: ADVERSE EVENT, (%)",[1],(2.6) %
same,"Primary reason for treatment discontinuation: ADVERSE EVENT, (%)",[1],(5.1) %
same,"Lp(a) Change from Baseline to Day 84, Mean",[2],-19.71 nmol/L
same,"Lp(a) Change from Baseline to Day 84, Median",[2],-4.50 nmol/L
same,"Lp(a) Day 84, Mean",[2],77.96 nmol/L
same,"Lp(a) Day 84, Median",[2],26.25 nmol/L
same,"Lp(a) Percent Change from Baseline to Day 84 (%), Mean",[2],−15.16%
same,"Lp(a) Percent Change from Baseline to Day 84 (%), Median",[2],−11.95%
